The target in data set [1] is T1, recombinant full-length WRN protein (1-1432) (Homo sapiens, UniProt Q14191).
T1 construct: recombinant full-length WRN protein (1-1432)
In words: WRN unwinding activity, fluorogenic 384-well assay (Example A). The data set is classed as biochemical. The settings on record: WRN unwinding activity, 4 hr; Table 2; read-out: 4 hr UNW pIC50 (converted). The gist of the method: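 Read-out is end-point unwinding of a fluorophore/quencher duplex (ex 525, em 598 nm) after 60 min with 200 μM ATP and 12 nM DNA (2× stocks), EDTA stop. Compound first sat 4 h with 200 pM WRN (2× stock) in pH 8.0 Tris buffer; four-parameter fit gives pIC50.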

The subject of data set [2] is SW48 human colorectal cancer cells. The data set is described as follows: Calculated free drug potency in SW48 cell assay, corrected with media free fraction (Example C). To be noted: for CC50: Homo sapiens, SW48, SW48 pCC50 corrected with measured free fraction in cell assay media. The format is cell-based. Here is the method: (§1) It was observed that the compounds of the present disclosure are bound to cell assay media to various degrees, which would affect the cellular potency analysis in Example B. To measure free drug potency, concentrations used in the cell assays were corrected with the measured free fraction determined in the cell assay media. Compounds were incubated in a rapid equilibrium dialysis (RED) at a nominal concentration of 1 μM, using a dialysis buffer of phosphate-buffered saline (PBS, 100 mM sodium phosphate+150 mM sodium chloride, pH 7.4). The test compound was spiked into the medium. Aliquots were added to the donor wells of a RED plate in triplicate, and blank PBS was added to each receiver well, at volumes recommended by the manufacturer. Plates were incubated with shaking at 200 rpm for 4 hours at 37° C. The resultant samples were analysed by LC-MS/MS using a specific and sensitive method. Results were reported as analyte:internal standard peak area ratios (PARs), and the percent unbound was calculated with the following equation:
(§2) [formula] where Cfinal=PAR in the T=240 minute sample; Cinitial=PAR in the T=0 minute sample. Cell culture media unbound percentage and calculated free drug potency of selected compounds along with their measured potency from Example B are shown in Table 3.

The nature of data set [3]: Cell culture media unbound percentage and stability by rapid equilibrium dialysis (Example C). The data set is classed as in vitro ADME. To be noted: bovine, cell assay medium (RPMI-1640 with 10% fetal bovine serum), pH 7.4, rapid equilibrium dialysis, 4 hours at 37° C., read-out: Cell Culture Media Binding (% unbound). Here is the method: as §1
[formula] where D=the matrix dilution factor (D=1 for media); Apparent Fu=Crec/Cdon; Crec=PAR in receiver samples; Cdon=PAR in donor samples. Percent stability was calculated by:
as §2

The subject of data set [4] is SW48 human colorectal cancer cells (MSI-H cancer cells). In words: SW48 cell viability, CellTiter-Glo, 120 hours (Example B). The settings on record: for CC50: Homo sapiens. Background: Cellular ATP, detected with luciferase, serves as a proxy for viable cell number.
Method: SW48 human colorectal cancer cells (MSI-H cancer cells) were obtained from the American Type Culture Collection and maintained in growth medium composed of RPMI-1640 supplemented with 10% fetal bovine serum. Cells were maintained in a humidified 5% CO2 incubator at 37° C. Cell dissociation was conducted using TrypLE Select to detach cells from culture flasks. Following dissociation, cells were centrifuged briefly and resuspended in assay medium RPMI-1640+10% fetal bovine serum. Black 384-well assay plates were prepared from source plates of DMSO and compounds dissolved in DMSO prior to cell dispensation. These source plates were prepared in eleven point, 3-fold serial dilutions from 10 mM stocks stored at 4° C. Compounds and DMSO controls were dispensed into assay plates at 150 nanoliters per well from source plates using Labcyte Echo 555 or Echo 655T dispensers with Column 6 and Column 18 containing DMSO only. Cells were then seeded into prepared assay plates in 50 microliters assay medium at 250 cells per well into Columns 1 thru 17 and Columns 19-24. Assay medium without cells was added to column 18 to serve as a surrogate for 100% cell cytotoxicity. Following incubation for 120 hours in a humidified 5% CO2 incubator at 37° C., cellular ATP concentration of each well was measured and used as a surrogate of cell viability. This was performed by adding 50 microliters of CellTiter-Glo reagent to each well followed by a 10-minute incubation at room temperature. Luminescence was measured on a Synergy Neo or Synergy Neo2 multimode plate reader. Compound cytotoxic response (% C) was normalized to the robust means of column 6 (Control 1, 0% Cytotoxicity) and column 18 (Control 2, 100% Cytotoxicity) and normalized % cytotoxicity (% C) calculated. % C=100−100*((Compound−Control 2)/(Control1−Control2)). These normalized data were then used to determine a 50% cytotoxic response (CC50) using 4-parameter logistic curve model 201 in Activity Base XE:
[formula] • where A=minimum asymptote (% cytotoxicity), B=maximum asymptote (% cytotoxicity), C=Log CC50 (pCC50), D=Hill slope, and x=[inhibitor], (M).
[5] abbreviates: SW48, 120 h, read-out: SW48 pCC50, SW48 cell viability, 120 hours incubation (converted), Table 2.
[6] abbreviates: SW48, read-out: SW48 pCC50, measured potency from Example B, as repeated in Table 3 (converted).

Structures can show the parent of a compound that is named as a salt. Where two headings read alike, the source gives them in different places.

Data on twelve compounds can be found in US12662451B2, “Chemical compounds and uses thereof” (GLAXOSMITHKLINE INTELLECTUAL PROPERTY (NO.4) LIMITED, priority 2023, dated 2026).

T1 sequence (Q14191 whole entry): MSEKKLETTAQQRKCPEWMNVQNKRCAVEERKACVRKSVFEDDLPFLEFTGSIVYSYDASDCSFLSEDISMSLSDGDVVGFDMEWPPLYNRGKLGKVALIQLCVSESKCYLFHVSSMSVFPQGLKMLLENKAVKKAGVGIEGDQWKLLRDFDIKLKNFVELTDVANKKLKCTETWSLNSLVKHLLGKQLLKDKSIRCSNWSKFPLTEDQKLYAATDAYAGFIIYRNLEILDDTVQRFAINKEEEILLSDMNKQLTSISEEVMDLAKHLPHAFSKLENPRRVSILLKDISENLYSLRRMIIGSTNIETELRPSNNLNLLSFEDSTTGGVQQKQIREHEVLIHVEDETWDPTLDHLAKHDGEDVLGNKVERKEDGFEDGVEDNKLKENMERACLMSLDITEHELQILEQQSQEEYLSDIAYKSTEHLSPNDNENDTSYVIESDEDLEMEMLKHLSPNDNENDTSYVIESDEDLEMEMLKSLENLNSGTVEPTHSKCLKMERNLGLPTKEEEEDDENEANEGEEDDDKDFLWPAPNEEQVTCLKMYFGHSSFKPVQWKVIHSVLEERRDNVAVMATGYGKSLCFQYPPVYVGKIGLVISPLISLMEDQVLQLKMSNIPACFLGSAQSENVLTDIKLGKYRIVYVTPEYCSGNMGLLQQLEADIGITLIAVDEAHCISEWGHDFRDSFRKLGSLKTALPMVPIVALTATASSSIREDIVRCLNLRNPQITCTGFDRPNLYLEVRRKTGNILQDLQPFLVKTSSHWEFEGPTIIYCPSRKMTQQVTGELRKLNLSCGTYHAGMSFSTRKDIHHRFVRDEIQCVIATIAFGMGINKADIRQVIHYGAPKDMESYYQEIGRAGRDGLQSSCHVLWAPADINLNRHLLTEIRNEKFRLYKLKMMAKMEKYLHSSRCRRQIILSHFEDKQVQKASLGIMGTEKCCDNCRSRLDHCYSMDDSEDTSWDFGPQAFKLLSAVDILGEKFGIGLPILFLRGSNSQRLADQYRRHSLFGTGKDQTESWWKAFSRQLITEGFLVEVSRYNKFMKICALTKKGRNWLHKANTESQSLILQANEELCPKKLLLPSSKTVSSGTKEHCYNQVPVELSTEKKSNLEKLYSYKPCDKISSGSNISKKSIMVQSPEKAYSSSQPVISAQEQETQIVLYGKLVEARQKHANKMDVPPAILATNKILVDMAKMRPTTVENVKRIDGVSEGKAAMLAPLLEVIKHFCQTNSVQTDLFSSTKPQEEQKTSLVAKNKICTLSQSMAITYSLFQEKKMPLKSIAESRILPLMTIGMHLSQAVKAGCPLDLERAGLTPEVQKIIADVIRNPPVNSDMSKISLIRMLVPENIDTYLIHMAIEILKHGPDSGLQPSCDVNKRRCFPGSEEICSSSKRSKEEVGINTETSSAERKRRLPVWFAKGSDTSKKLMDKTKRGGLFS

`COc1cccc(S(=O)(=O)N(C)c2ccc([C@H]3CCC[C@@H](C(=O)Nc4ccc(C(F)(F)F)cc4F)[C@@H]3C(=O)O)cc2)c1` (racemic) [Example 82]: the IC50 in data set [1] is 5.01 nM. For the same compound, the CC50 in data set [2] was 74.1 nM; in data set [4] (setting [5]), 5010 nM; in data set [4] (setting [6]) it was 5010 nM. In addition, the fraction unbound at 4 h, 1 µM in data set [3] came out at 0.0147.
With `CO[C@@H]1C[C@H](C(=O)Nc2ccc(C(F)(F)F)cc2F)[C@@H](C(=O)O)[C@H](c2ccc(N(C)S(=O)(=O)c3ccc4c(c3)nc(C)n4C)cc2)C1` (relative stereo) [Example 148, rel-(1R,2R,4R,6S)-2-((2-fluoro-4-(trifluoromethyl)phenyl)carbamoyl)-4-methoxy-6-(4-((N,1,2-trimethyl-1H-benzo[d]imidazole)-5-sulfonamido)phenyl)cyclohexane-1-carboxylic acid], in data set [1], the IC50 is 1.26 nM. Moreover, the CC50 in data set [2] was 25.7 nM; in data set [4] (setting [5]), 200 nM; in data set [4] (setting [6]), 200 nM. Besides, the fraction unbound at 4 h, 1 µM in data set [3] was found to be 0.129.
As to `Cc1nc2cc(S(=O)(=O)N(C)c3ccc([C@H]4C[C@@H](OCC(F)F)C[C@@H](C(=O)Nc5ccc(C(F)(F)F)cc5F)[C@@H]4C(=O)O)cc3)ccc2n1C` (relative stereo) [Example 159, rel-(1R,2R,4R,6S)-4-(2,2-difluoroethoxy)-2-((2-fluoro-4-(trifluoromethyl)phenyl)carbamoyl)-6-(4-((N,1,2-trimethyl-1H-benzo[d]imidazole)-5-sulfonamido)phenyl)cyclohexane-1-carboxylic acid], the IC50 in data set [1] was 2.51 nM. In addition, the figures for the CC50 in data set [2], in data set [4] (setting [5]) and in data set [4] (setting [6]) were 20 nM, 200 nM and 200 nM, respectively. The fraction unbound at 4 h, 1 µM in data set [3] worked out at 0.0991.
As to `Cc1nc2cc(S(=O)(=O)N(C)c3ccc([C@H]4CCC[C@@H](C(=O)Nc5ccc(C(F)(F)F)cc5F)[C@@H]4C(=O)O)nc3)ccc2n1C` (relative stereo) [Example 161, rel-(1R,2R,6S)-2-((2-fluoro-4-(trifluoromethyl)phenyl)carbamoyl)-6-(5-((N,1,2-trimethyl-1H-benzo[d]imidazole)-5-sulfonamido)pyridin-2-yl)cyclohexane-1-carboxylic acid], in data set [1], the IC50 is 2.51 nM. In addition, the CC50 in data set [2] was 38 nM; in data set [4] (setting [5]) it was 794 nM; in data set [4] (setting [6]) it was 794 nM. The fraction unbound at 4 h, 1 µM in data set [3] turned out to be 0.0481.
For `Cc1nc2cc(S(=O)(=O)N(C)c3ccc([C@@H]4CCC[C@H](C(=O)Nc5ccc(C(F)(F)F)cn5)[C@H]4C(=O)O)cc3)ccc2n1C` (relative stereo) [Example 168, rel-(1R,2R,6S)-2-((5-(trifluoromethyl)pyridin-2-yl)carbamoyl)-6-(4-((N,1,2-trimethyl-1H-benzo[d]imidazole)-5-sulfonamido)phenyl)cyclohexane-1-carboxylic acid], in data set [1], the IC50 was 2.51 nM. In addition, the CC50 in data set [2] is 37.2 nM; in data set [4] (setting [5]), 631 nM; in data set [4] (setting [6]) it was 631 nM. In addition, in data set [3], the fraction unbound at 4 h, 1 µM was found to be 0.0585.
For `Cc1nc2cc(S(=O)(=O)N(C)c3ccc([C@@H]4CCC[C@H](COc5ccc(C(F)(F)F)cc5)[C@H]4C(=O)O)cc3)cc([C@@H]3CCCNC3)c2n1C` (relative stereo) [Example 207, rel-(1R,2R,6S)-2-((4-(trifluoromethyl)phenoxy)methyl)-6-(4-((N,1,2-trimethyl-7-((R)-piperidin-3-yl)-1H-benzo[d]imidazole)-5-sulfonamido)phenyl)cyclohexane-1-carboxylic acid, hydrochloride], the IC50 in data set [1] is 1.58 nM. The CC50 in data set [2] was 110 nM; in data set [4] (setting [5]), 7940 nM; in data set [4] (setting [6]) it was 7940 nM. Moreover, the fraction unbound at 4 h, 1 µM in data set [3] came out at 0.0138.
As for `Cc1nc2cc(S(=O)(=O)N(C)c3ccc([C@H]4CC[C@@H](C)[C@@H](C(=O)Nc5ccc(C(F)(F)F)cc5F)[C@@H]4C(=O)O)cc3)ccc2n1C` (relative stereo) [Example 235, rel-(1R,2R,3R,6S)-2-((2-fluoro-4-(trifluoromethyl)phenyl)carbamoyl)-3-methyl-6-(4-((N,1,2-trimethyl-1H-benzo[d]imidazole)-5-sulfonamido)phenyl)cyclohexane-1-carboxylic acid], in data set [1], the IC50 was 2 nM. Also, the CC50 was 8.32 nM in data set [2], 251 nM in data set [4] (setting [5]) and 251 nM in data set [4] (setting [6]). The fraction unbound at 4 h, 1 µM in data set [3] was found to be 0.0332.
On to `Cc1nc2cc(S(=O)(=O)N(C)c3ccc([C@H]4CCC[C@@H](C(=O)Nc5ccc(C(F)(F)F)cc5F)[C@@H]4C(=O)O)cc3)cc([C@H]3CCCNC3)c2n1C` (relative stereo) [Example 269, (1R,2R,6S)-2-((2-fluoro-4-(trifluoromethyl)phenyl)carbamoyl)-6-(4-((N,1,2-trimethyl-7-((R*)-piperidin-3-yl)-1H-benzo[d]imidazole)-5-sulfonamido)phenyl)cyclohexane-1-carboxylic acid hydrochloride], for which, in data set [1], the IC50 was 0.794 nM. Besides, the CC50 in data set [2] is 646 nM; in data set [4] (setting [5]), 2510 nM; in data set [4] (setting [6]), 2510 nM. The fraction unbound at 4 h, 1 µM in data set [3] came to 0.257.
With `Cc1nc2cc(S(=O)(=O)N(C)c3ccc([C@H]4CCC[C@@H](C(=O)Nc5ccc(C(F)(F)F)cc5F)[C@@H]4C(=O)O)cc3)cc([C@H]3CCCN(C)C3)c2n1C` (relative stereo) [Example 271, (1R,2R,6S)-2-((2-fluoro-4-(trifluoromethyl)phenyl)carbamoyl)-6-(4-((N,1,2-trimethyl-7-((R*)-1-methylpiperidin-3-yl)-1H-benzo[d]imidazole)-5-sulfonamido)phenyl)cyclohexane-1-carboxylic acid], the IC50 in data set [1] was 1.58 nM. The CC50 was 17.8 nM in data set [2], 79.4 nM in data set [4] (setting [5]) and 79.4 nM in data set [4] (setting [6]). In addition, the fraction unbound at 4 h, 1 µM in data set [3] worked out at 0.224.
As for `Cc1nc2cc(S(=O)(=O)N(C)c3ccc([C@H]4C[C@@H](O[C@@H]5CCOC5)C[C@@H](C(=O)Nc5ccc(C(F)(F)F)cc5F)[C@@H]4C(=O)O)cc3)ccc2n1C` (relative stereo) [Example 321, (1R*,2R*,4R*,6S*)-2-((2-fluoro-4-(trifluoromethyl)phenyl)carbamoyl)-4-(((R)-tetrahydrofuran-3-yl)oxy)-6-(4-((N,1,2-trimethyl-1H-benzo[d]imidazole)-5-sulfonamido)phenyl)cyclohexane-1-carboxylic acid], the IC50 in data set [1] was 1.58 nM. Further, the CC50 in data set [2] was 31.6 nM; in data set [4] (setting [5]), 200 nM; in data set [4] (setting [6]) it was 200 nM. Also, the fraction unbound at 4 h, 1 µM in data set [3] was found to be 0.16.
For `Cc1nc2cc(S(=O)(=O)N(C)c3ccc([C@H]4C[C@H](N5CCC(F)(F)CC5)C[C@@H](C(=O)Nc5ccc(C(F)(F)F)cc5F)[C@@H]4C(=O)O)cc3)ccc2n1C` (relative stereo) [Example 342, rel-(1R,2R,4S,6S)-4-(4,4-difluoropiperidin-1-yl)-2-((2-fluoro-4-(trifluoromethyl)phenyl)carbamoyl)-6-(4-((N,1,2-trimethyl-1H-benzo[d]imidazole)-5-sulfonamido)phenyl)cyclohexane-1-carboxylic acid], the CC50 in data set [2] is 389 nM; in data set [4] (setting [5]) it was 6310 nM; in data set [4] (setting [6]) it was 6310 nM. Moreover, the fraction unbound at 4 h, 1 µM in data set [3] is 0.0623.
As for `CN(c1ccc([C@H]2CCC[C@@H](C(=O)Nc3ccc(C(F)(F)F)cc3F)[C@@H]2C(=O)O)cc1)S(=O)(=O)c1cc(I)c2occc2c1` [Example 117, (1R,2R,6S)-2-((2-fluoro-4-(trifluoromethyl)phenyl)carbamoyl)-6-(4-((7-iodo-N-methylbenzofuran)-5-sulfonamido)phenyl)cyclohexane-1-carboxylic acid], the IC50 in data set [1] is 63.1 nM. In addition, in data set [2] (SW48 pCC50 corrected with measured free fraction in cell assay media), the “Free Drug SW48 pCC50” value is 8.36. Further, the CC50 in data set [4] (setting [5]) was 3980 nM. Further, the “SW48 pCC50” value in data set [4] (measured potency from Example B, as repeated in Table 3) is recorded as 5.4.
